Assay results taken from patent US11999739B2, “Antimicrobials methods of making and using the same” (BIOVERSYS AG, priority 2016, dated 2024).

What was measured:
[1] = system: Staphylococcus aureus (S. aureus) 11540 strain; assay: Standard microdilution MIC assay, S. aureus; type: cell-based
Outline: (§1)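 MICs obtained by CLSI-standard microdilution, quality-controlled with reference strains in parallel. Values reported as + or − relative to a 16 micrograms/mL cutoff.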

[2] = system: Escherichia coli strain ATCC25922; assay: Standard microdilution MIC assay, E. coli; type: cell-based
Outline: as §1

Row | MIC [1] [µg/mL] | MIC [2] [µg/mL] | Structure (SMILES)
1 | ≤ 16 | ≤ 16 | COC[C@H](N)CCCc1cc(-c2cc3cn(-c4ccc(CN[C@H](CCNC(C)=N)C5CC5)cc4)c(=O)nc3[nH]2)c(F)c(C(F)(F)F)c1 [Compound 224]
2 | ≤ 16 | ≤ 16 | CC(=N)NCC[C@@H]1CCC[C@@H](c2ccc(-n3cc4cc(-c5cc(CCC[C@@H](N)CF)cc(C(F)(F)F)c5F)[nH]c4nc3=O)cc2OC(F)(F)F)N1 [Compound 225]
3 | ≤ 16 | ≤ 16 | CC(=N)NCC[C@@H]1CCC[C@@H](c2ccc(-n3cc4cc(-c5cc(CCC[C@@H]6COCCN6)cc(Cl)c5F)[nH]c4nc3=O)cc2)N1 [Compound 226]
4 | ≤ 16 | ≤ 16 | CC(=N)NCC[C@@H]1CCC[C@@H](c2ccc(-n3cc4cc(-c5cc(CCC[C@@H]6COCC(=O)N6)cc(Cl)c5F)[nH]c4nc3=O)cc2)N1 [Compound 227]
5 | ≤ 16 | ≤ 16 | CC(=N)NCC[C@@H]1CCC[C@@H](c2ccc(-n3cc4cc(-c5cc(CCC[C@@H](N)C6CC6)cc(C(F)(F)F)c5F)[nH]c4nc3=O)cc2F)N1 [Compound 228]
6 | ≤ 16 | ≤ 16 | CC(=N)NCC[C@@H]1CCC[C@@H](c2ccc(-n3cc4cc(-c5cc(CCC[C@@H](N)C6CC6)cc(C(F)(F)F)c5F)[nH]c4nc3=O)cc2OC(F)(F)F)N1 [Compound 229]
7 | ≤ 16 | ≤ 16 | CC(=N)NCC[C@@H](NCc1ccc(-n2cc3cc(-c4cc(CCC[C@@H](N)CF)cc(C(F)(F)F)c4F)[nH]c3nc2=O)cc1)C1CC1 [Compound 230]
8 | ≤ 16 | ≤ 16 | CC(=N)NCC[C@@H]1CCC[C@@H](c2ccc(-n3cc4cc(-c5cc(CCC[C@@H](N)CO)cc(OC(F)(F)F)c5F)[nH]c4nc3=O)cc2OC(F)(F)F)N1 [Compound 231]
9 | ≤ 16 | ≤ 16 | CC(=N)NCC[C@@H]1CCC[C@@H](c2ccc(-n3cc4cc(-c5cc(CCC[C@H](C)N)cc(Cl)c5F)[nH]c4nc3=O)cc2C)N1 [Compound 232]
10 | ≤ 16 | ≤ 16 | COC[C@H](N)CCCc1cc(OC(F)(F)F)c(F)c(-c2cc3cn(-c4ccc([C@@H]5CCC[C@@H](CCNC(C)=N)N5)c(OC(F)(F)F)c4)c(=O)nc3[nH]2)c1 [Compound 233]
11 | ≤ 16 | ≤ 16 | COc1cc(-n2cc3cc(-c4cc(CCC[C@@H](N)C5CC5)cc(OC(F)(F)F)c4F)[nH]c3nc2=O)ccc1[C@@H]1CCC[C@@H](CCNC(C)=N)N1 [Compound 234]
12 | ≤ 16 | ≤ 16 | COc1cc(-n2cc3cc(-c4cc(CCC[C@@H](N)C5CC5)cc(C(F)(F)F)c4F)[nH]c3nc2=O)ccc1[C@@H]1CCC[C@@H](CCNC(C)=N)N1 [Compound 235]
13 | ≤ 16 | ≤ 16 | CC(=N)NCC[C@@H]1CCC[C@@H](c2ccc(-n3cc4cc(-c5cc(CCC[C@@H](N)CF)cc(OC(F)(F)F)c5F)[nH]c4nc3=O)cc2)N1 [Compound 236]
14 | ≤ 16 | ≤ 16 | COc1cc(-n2cc3cc(-c4cc(CCC[C@@H](N)CF)cc(C(F)(F)F)c4F)[nH]c3nc2=O)ccc1[C@@H]1CCC[C@@H](CCNC(C)=N)N1 [Compound 237]
15 | ≤ 16 | ≤ 16 | COC[C@H](N)CCCc1cc(OC(F)(F)F)c(F)c(-c2cc3cn(-c4ccc([C@@H]5CCC[C@@H](CCNC(C)=N)N5)c(C)c4)c(=O)nc3[nH]2)c1 [Compound 238]
16 | ≤ 16 | ≤ 16 | CC(=N)NCC[C@@H]1CCC[C@@H](c2ccc(-n3cc4cc(-c5cc(CCC[C@@H](N)C6CC6)cc(Cl)c5F)[nH]c4nc3=O)cc2C)N1 [Compound 239]
17 | ≤ 16 | ≤ 16 | CSc1cc(-n2cc3cc(-c4cc(CCC[C@H](C)N)cc(Cl)c4F)[nH]c3nc2=O)cc(F)c1[C@@H]1CCC[C@@H](CCNC(C)=N)N1 [Compound 240]
18 | ≤ 16 | ≤ 16 | COC[C@H](N)CCCc1cc(OC(F)(F)F)c(F)c(-c2cc3cn(-c4cc(F)c([C@@H]5CCC[C@@H](CCNC(C)=N)N5)c(SC)c4)c(=O)nc3[nH]2)c1 [Compound 241]
19 | ≤ 16 | ≤ 16 | CSc1cc(-n2cc3cc(-c4cc(CCC[C@@H](N)C5CC5)cc(OC(F)(F)F)c4F)[nH]c3nc2=O)cc(F)c1[C@@H]1CCC[C@@H](CCNC(C)=N)N1 [Compound 242]
20 | ≤ 16 | ≤ 16 | COc1cc(-n2cc3cc(-c4cc(CCC[C@@H](N)C5CC5)cc(C(F)(F)F)c4)[nH]c3nc2=O)ccc1[C@@H]1CCC[C@@H](CCNC(C)=N)N1 [Compound 243]
21 | ≤ 16 | ≤ 16 | C=C[C@H](N)CCCc1cc(Cl)c(F)c(-c2cc3cn(-c4ccc([C@@H]5CCC[C@@H](CCNC(C)=N)N5)c(OC)c4)c(=O)nc3[nH]2)c1 [Compound 244]
22 | ≤ 16 | ≤ 16 | CC(=N)NCC[C@@H]1CCC[C@@H](c2ccc(-n3cc4cc(-c5cc(CCC[C@@H]6COCCN6)cc(Cl)c5F)[nH]c4nc3=O)cc2F)N1 [Compound 245]
23 | ≤ 16 | ≤ 16 | C=C[C@H](N)CCCc1cc(Cl)c(F)c(-c2cc3cn(-c4cc(F)c([C@@H]5CCC[C@@H](CCNC(C)=N)N5)c(F)c4)c(=O)nc3[nH]2)c1 [Compound 246]

Row | MIC [1] [µg/mL] | MIC [2] [µg/mL] | Structure (SMILES)
24 | ≤ 16 | ≤ 16 | CC(=N)NCC[C@@H]1CCC[C@@H](c2c(F)cc(-n3cc4cc(-c5cc(CCC[C@@H](N)C6CC6)cc(Cl)c5F)[nH]c4nc3=O)cc2F)N1 [Compound 247]
25 | ≤ 16 | ≤ 16 | CC(=N)NCC[C@@H]1CCC[C@@H](c2ccc(-n3cc4cc(-c5cc(CCC[C@@H](N)C6CC6)cc(Cl)c5F)[nH]c4nc3=O)cn2)N1 [Compound 248]
26 | ≤ 16 | ≤ 16 | CSc1cc(-n2cc3cc(-c4cc(CCC[C@@H](N)C5CC5)cc(C(F)(F)F)c4)[nH]c3nc2=O)ccc1[C@@H]1CCC[C@@H](CCNC(C)=N)N1 [Compound 250]
27 | ≤ 16 | ≤ 16 | CSc1cc(-n2cc3cc(-c4cc(CCC[C@@H](N)C5CC5)cc(C(F)(F)F)c4F)[nH]c3nc2=O)ccc1[C@@H]1CCC[C@@H](CCNC(C)=N)N1 [Compound 251]
28 | ≤ 16 | ≤ 16 | CSc1cc(-n2cc3cc(-c4cc(CCC[C@@H](N)C5CC5)cc(OC(F)(F)F)c4F)[nH]c3nc2=O)ccc1[C@@H]1CCC[C@@H](CCNC(C)=N)N1 [Compound 252]
29 | ≤ 16 | ≤ 16 | CC(=N)N[C@@H](C)C[C@@H]1CCC[C@@H](c2ccc(-n3cc4cc(-c5cc(CCC[C@H](C)N)cc(Cl)c5F)[nH]c4nc3=O)cc2)N1 [Compound 253]
30 | ≤ 16 | ≤ 16 | CSc1cc(-n2cc3cc(-c4cc(CCC[C@@H](N)CF)cc(C(F)(F)F)c4F)[nH]c3nc2=O)ccc1[C@@H]1CCC[C@@H](CCNC(C)=N)N1 [Compound 255]
31 | ≤ 16 | ≤ 16 | CC(=N)N[C@@H](C)C[C@@H]1CCC[C@@H](c2ccc(-n3cc4cc(-c5cc(CCC[C@@H](N)C6CC6)cc(Cl)c5F)[nH]c4nc3=O)cc2)N1 [Compound 256]
32 | ≤ 16 | ≤ 16 | CC(=N)N[C@H](C)C[C@@H]1CCC[C@@H](c2ccc(-n3cc4cc(-c5cc(CCC[C@@H](N)C6CC6)cc(Cl)c5F)[nH]c4nc3=O)cc2)N1 [Compound 257]
33 | ≤ 16 | ≤ 16 | COC[C@H](N)CCCc1cc(OC(F)(F)F)c(F)c(-c2cc3cn(-c4ccc([C@@H]5CCC[C@@H](C[C@H](C)NC(C)=N)N5)cc4)c(=O)nc3[nH]2)c1 [Compound 258]
34 | ≤ 16 | ≤ 16 | C=C[C@H](N)CCCc1cc(Cl)c(F)c(-c2cc3cn(-c4ccc([C@@H]5CCC[C@@H](CCNC(C)=N)N5)c(C)c4)c(=O)nc3[nH]2)c1 [Compound 259]
35 | ≤ 16 | ≤ 16 | CSc1cc(-n2cc3cc(-c4cc(CCC[C@@H]5COCCN5)cc(Cl)c4F)[nH]c3nc2=O)ccc1[C@@H]1CCC[C@@H](CCNC(C)=N)N1 [Compound 260]
36 | ≤ 16 | ≤ 16 | CC(=N)NCC[C@@H]1CCC[C@@H](c2ccc(-n3cc4cc(-c5cc(CCC[C@H](C)N)cc(Cl)c5F)[nH]c4nc3=O)cc2)N1CCc1cccnc1 [Compound 261]
37 | ≤ 16 | ≤ 16 | CC(=N)NCC[C@@H]1CCC[C@@H](c2ccc(-n3cc4cc(-c5cc(CCC[C@H](C)N)cc(Cl)c5F)[nH]c4nc3=O)cc2)N1CCn1ccnc1 [Compound 262]
38 | ≤ 16 | ≤ 16 | CC(=N)NCC[C@@H]1CCC[C@@H](c2ccc(-n3cc4cc(-c5cc(CCC[C@H](C)N)cc(Cl)c5F)[nH]c4nc3=O)cc2)N1CCn1ccnc1C [Compound 263]
39 | ≤ 16 | ≤ 16 | C=C[C@H](NCCCNC(C)=N)c1ccc(-n2cc3cc(-c4cc(CCC[C@@H](N)C=C)cc(Cl)c4F)[nH]c3nc2=O)cc1 [Compound 265]
40 | ≤ 16 | ≤ 16 | C=C[C@H](NCCCNC(C)=N)c1ccc(-n2cc3cc(-c4cc(CCC[C@@H](N)C5CC5)cc(Cl)c4F)[nH]c3nc2=O)cc1 [Compound 266]
41 | ≤ 16 | ≤ 16 | C=C[C@H](NCCCNC(C)=N)c1ccc(-n2cc3cc(-c4cc(CCCC(C)(C)N)cc(Cl)c4F)[nH]c3nc2=O)cc1 [Compound 267]
42 | ≤ 16 | ≤ 16 | C=C[C@H](NCCCNC(C)=N)c1ccc(-n2cc3cc(-c4cc(CCC[C@@H](N)COC)cc(OC(F)(F)F)c4F)[nH]c3nc2=O)cc1 [Compound 268]
43 | ≤ 16 | ≤ 16 | CC(=N)NCC[C@@H]1CSC[C@@H](c2ccc(-n3cc4cc(-c5cc(CCC[C@@H](N)C6CC6)cc(Cl)c5F)[nH]c4nc3=O)cc2)N1 [Compound 269]
44 | ≤ 16 | ≤ 16 | COC[C@H](N)CCCc1cc(OC(F)(F)F)c(F)c(-c2cc3cn(-c4ccc([C@@H]5CSC[C@@H](CCNC(C)=N)N5)cc4)c(=O)nc3[nH]2)c1 [Compound 270]
45 | ≤ 16 | ≤ 16 | CC(=N)NCC[C@@H]1CSC[C@@H](c2ccc(-n3cc4cc(-c5cc(CCC[C@H](C)N)cc(Cl)c5F)[nH]c4nc3=O)cc2)N1 [Compound 271]
46 | ≤ 16 | ≤ 16 | C=C[C@H](N)CCCc1cc(Cl)c(F)c(-c2cc3cn(-c4ccc([C@@H]5CCC[C@@H](CCNC(C)=N)N5)c(S(C)(=O)=O)c4)c(=O)nc3[nH]2)c1 [Compound 272]
